From patent EP2573088A1, “Pyrano[3,2-c]benzopyran-6(2h)-one derivatives and uses thereof” (Prous Institute for Biomedical Research, S.A., priority 2011, dated 2013)

Experiments:
[1] = system: streptozotocin-induced diabetic mice; assay: Blood glucose in mice with streptozotocin-induced diabetes; type: in vivo; conditions: for reduction in blood glucose concentrations when compared to basal values: range over the experimental time points
Procedure: (§1) Male C57BL/6 mice weighing 25 ± 3 g were provided by Harlan. Space allocation for five animals was 29 x 18 x 13 cm. All animals were maintained in a controlled temperature (21-23 °C) and humidity (50-70%) environment on a 12-hour light/dark cycle for 7 days in the animal facilities. Free access to standard chow for mice and reverse osmosis water were given. All aspects of this work, including housing, experimentation and disposal of animals, were performed in general accordance with the Guide for the Care and Use of Laboratory Animals.
In mice with streptozotocin-induced diabetes [Tokunaga, H. et al. Eur J Pharmacol 1983, 87(2-3): 237-43], diabetes was induced with a […] i.p. injection of streptozotocin (Sigma) 50 mg/kg body weight, freshly dissolved in NaCl 0.9% during 5 consecutive days. After 4 weeks, those mice (80%) with basal glucose concentrations under fasting (4 hours) conditions above 220 mg/dL were included in the assay. The test substance, positive and negative controls were administered by the p.o. route 30 minutes before measurement of the blood glucose concentrations at 0, 15, 30, 60, 90, and 120 minutes. Free access to water was maintained throughout the study.

fasted mice = assay: Blood glucose after i.p. glucose challenge, fasted mice; type: in vivo; conditions: oral
Procedure: as §1
(§2) Then, the blood glucose concentrations were measured at 15, 30, 60, 90, and 120 minutes after the glucose injection (Glucometer and Reactive Strips Accu-chek Aviva, Roche) [Zhang, W. et al. Pharmacol Res 2011, 63: 284-93]. Free access to food and water was maintained throughout the study. Under fasting conditions, mice were deprived of food 4 hours before and during the experiment and the experimental protocol was followed as detailed above.

[2] = system: human platelet-rich plasma; assay: Platelet aggregation inhibition after induction by ADP, arachidonic acid or collagen; type: cell-based; conditions: different concentrations
Procedure: Platelet aggregation inhibition was evaluated after the induction of aggregation by ADP, arachidonic acid or collagen in human platelet-rich plasma [Bertele, V. et al. Science 1983, 220(4596): 517-9; Knöfler, R. et al. Thromb Res 1995, 77(1): 69-78]. […] Platelet function was additionally tested under rheological conditions in human whole blood using a platelet function test device, PFA-100 [Frossard, M. et al. Circulation 2004, 110(11): 1392-7; Hennekens, C.H. et al. Circulation 2004, 110(12): 1706-8]. An increase (26%-30%) in aggregation time in the presence of collagen-epinephrine was noted, indicating platelet aggregation-inhibitory activity for compounds in examples 1 to 12 at 1 µM concentration under rheological conditions.

[3] = system: Syrian hamster embryo (SHE) cell, BALB/c 3T3, and CH310T1/2; assay: Cell transformation assays (CTAs), carcinogenic assessment; type: cell-based; conditions: CTA assays, compared with structurally related compounds with carcinogenic potential
Excerpt: Carcinogenic potential may arise from a direct genotoxic effect or nongenotoxic effects. Epigenetic factors may contribute to tumor cell proliferation by routes other than a direct interaction with DNA. In that case, xenobiotics may act as cancer promoters in species other than those employed in preclinical drug development. Cell transformation assays (CTAs), including the main in vitro CTAs --the Syrian hamster embryo (SHE) cell, BALB/c 3T3, and CH310T1/2 assays-- are experimental tools reviewed by the OECD [Environment, Health and Safety Publications, Series on Testing and Assessment nº 31. Detailed review paper on cell transformation assays for detection of chemical carcinogens. November 28, 2006].

fed mice = assay: Blood glucose after i.p. glucose challenge, fed mice; type: in vivo
Procedure: as §1, §2

[4] = Maximum tolerated dose after single oral administration; conditions: mouse, in vivo, mice, observed up to 72 hours
Procedure: The maximum tolerated dose (MTD) was assessed in mice after single oral administration of high doses of Example 1 of 1 g/kg, 500 mg/kg, and 100 mg/kg, and the development of acute toxic symptoms (mortality, convulsions, tremors, muscle relaxation, sedation, etc.) and autonomic effects (diarrhea, salivation, lacrimation, vasodilation, piloerection, etc.) was observed during the first hour. The animals were then observed again for mortality at 3, 24, 48, and 72 hours. The mice were sacrificed if they lost more than 20% of their body weight or if there were other signs of significant toxicity. The MTD obtained for Example 1 in the above experimental conditions was 1 g/kg.

Structure (SMILES) | hypoglycemic effect ([1]; 0.1 mg/kg) | reduction in blood glucose concentrations when compared to basal values ([1]; 3 mg/kg oral) | reduction in blood glucose concentrations when compared to basal values ([1]; 30 mg/kg oral) | reduction in blood glucose concentrations when compared to basal values ([1]; 300 mg/kg oral) | decrease in blood glucose concentrations ([1]; mice with streptozotocin-induced diabetes, oral) | decrease in blood glucose concentrations (fasted mice; fasted mice, after i.p. glucose challenge (1 g/kg)) | hypoglycemic activity (fasted mice; fasted, 0.3 mg/kg) | inhibition of platelet aggregation [2] | carcinogenic potential [3] | decrease in blood glucose concentrations (fed mice; fed mice, oral, after i.p. glucose challenge (1 g/kg)) | reduction in blood glucose concentrations when compared to basal values (fed mice; fed, single oral dose 3 mg/kg, 90 minutes after glucose challenge) [%] | reduction in blood glucose concentrations when compared to basal values (fed mice; fed, single oral dose 3 mg/kg, 120 minutes after glucose challenge) [%] | reduction in blood glucose concentrations when compared to basal values (fed mice; fed, single oral dose 30 mg/kg, 90 minutes after glucose challenge) [%] | reduction in blood glucose concentrations when compared to basal values (fed mice; fed, single oral dose 30 mg/kg, 120 minutes after glucose challenge) [%] | reduction in blood glucose concentrations when compared to basal values (fed mice; fed, single oral dose 300 mg/kg, 90 minutes after glucose challenge) [%] | reduction in blood glucose concentrations when compared to basal values (fed mice; fed, single oral dose 300 mg/kg, 120 minutes after glucose challenge) [%] | MTD at 72 h [4] [mg/kg] | decrease in blood glucose concentrations (fed mice; fed, positive control, dose not given, 90 minutes after glucose challenge) [%] | decrease in blood glucose concentrations (fed mice; fed, positive control, dose not given, 120 minutes after glucose challenge) [%]
CCc1ccc(Cc2ccc3c(c2)[C@@H]2O[C@H](CO)[C@@H](O)[C@H](O)[C@H]2OC3=O)cc1 [Example 1, (2R,3S,4S,4aR,10bS)-9-(4-Ethylbenzyl)-3,4-dihydroxy-2-(hydroxymethyl)-3,4,4a,10b-tetrahydropyrano[3,2-c][2]benzopyran-6(2H)-one] | No relevant hypoglycemic effect | 7-22% | 7-26% | 18-42% | decrease in blood glucose concentrations | decrease in blood glucose concentrations | hypoglycemic activity | inhibition of platelet aggregation | no carcinogenic potential | decrease in blood glucose concentrations | 12.01 | 9.63 | 6.04 | 4.71 | 2.52 | 10.2 | 1000 | – | –
CCCCNC(=O)NS(=O)(=O)c1ccc(C)cc1 [Tolbutamide, reference compound] | – | – | – | – | – | – | – | – | – | – | – | – | – | – | – | – | – | 7.76 | 3.22
